Test results reported in PubChem BioAssay AID1963451 (Molecular Pharmacology Branch, DTP, NCI, 2024).

Tested on: 521955-158-R6-J3-PDC complex spheroid growth, % test/control
Assay: Anticancer human tumor 521955-158-R6-J3-PDC patient-derived pancreatic carcinoma cell line growth inhibition [Asc]
Details: for IC50: curve of first compound; for viability, T/C: stronger effect = lower value
Method in brief: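 Tumor cells were grown as multicellular spheroids with stromal HUVEC and mesenchymal stem cells and treated singly or in combination. Concentrations fell in half-log steps from the clinical Cmax, or from 10 microM where none was known.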

[1] = second compound 0.00316 µM, first compound 0.00316 µM
[2] = second compound 0.00316 µM, first compound 0.01 µM
[3] = second compound 0.00316 µM, first compound 0.0316 µM
[4] = second compound 0.00316 µM, first compound 0.1 µM
[5] = second compound 0.00316 µM, first compound 0.316 µM
[6] = second compound 0.00316 µM, first compound 1 µM
[7] = second compound 0.01 µM, first compound 0.00316 µM
[8] = second compound 0.01 µM, first compound 0.01 µM
[9] = second compound 0.01 µM, first compound 0.0316 µM
[10] = second compound 0.01 µM, first compound 0.1 µM
[11] = second compound 0.01 µM, first compound 0.316 µM
[12] = second compound 0.01 µM, first compound 1 µM
[13] = second compound 0.0316 µM, first compound 0.00316 µM
[14] = second compound 0.0316 µM, first compound 0.01 µM
[15] = second compound 0.0316 µM, first compound 0.0316 µM
[16] = second compound 0.0316 µM, first compound 0.1 µM
[17] = second compound 0.0316 µM, first compound 0.316 µM
[18] = second compound 0.0316 µM, first compound 1 µM
[19] = second compound 0.1 µM, first compound 0.00316 µM
[20] = second compound 0.1 µM, first compound 0.01 µM
[21] = second compound 0.1 µM, first compound 0.0316 µM
[22] = second compound 0.1 µM, first compound 0.1 µM
[23] = second compound 0.1 µM, first compound 0.316 µM
[24] = second compound 0.1 µM, first compound 1 µM
[25] = second compound 0.316 µM, first compound 0.00316 µM
[26] = second compound 0.316 µM, first compound 0.01 µM
[27] = second compound 0.316 µM, first compound 0.0316 µM
[28] = second compound 0.316 µM, first compound 0.1 µM
[29] = second compound 0.316 µM, first compound 0.316 µM
[30] = second compound 0.316 µM, first compound 1 µM
[31] = second compound 1 µM, first compound 0.00316 µM
[32] = second compound 1 µM, first compound 0.01 µM
[33] = second compound 1 µM, first compound 0.0316 µM
[34] = second compound 1 µM, first compound 0.1 µM
[35] = second compound 1 µM, first compound 0.316 µM
[36] = second compound 1 µM, first compound 1 µM
[37] = second compound 0.0316 µM, first compound 3.16 µM
[38] = second compound 0.0316 µM, first compound 10 µM
[39] = second compound 0.1 µM, first compound 3.16 µM
[40] = second compound 0.1 µM, first compound 10 µM
[41] = second compound 0.316 µM, first compound 3.16 µM
[42] = second compound 0.316 µM, first compound 10 µM
[43] = second compound 1 µM, first compound 3.16 µM
[44] = second compound 1 µM, first compound 10 µM
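Further: spheroids exposed to compounds for 7 days.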
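Wherever viability, T/C is given: 100% = DMSO vehicle control wells.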

O=C(c1ccc(F)c(F)c1Nc1ccc(I)cc1F)N1CC(O)([C@@H]2CCCCN2)C1 + CNC(C)C(=O)NC1CN(S(=O)(=O)c2cccc(S(=O)(=O)N3CCC4CCC(C(=O)NC(c5ccccc5)c5ccccc5)N4C(=O)C(NC(=O)C(C)NC)C3)c2)CCC2CCC(C(=O)NC(c3ccccc3)c3ccccc3)N2C1=O
IC50 (second compound 0.00316 µM): 569 nM | IC50 (second compound 0.01 µM): 261 nM | IC50 (second compound 0.0316 µM): 291 nM | IC50 (second compound 0.1 µM): 503 nM | IC50 (second compound 0.316 µM): 207 nM | IC50 (second compound 1 µM): 139 nM | viability, T/C [1]: 150% | viability, T/C [2]: 127% | viability, T/C [3]: 120% | viability, T/C [4]: 105% | viability, T/C [5]: 60% | viability, T/C [6]: 36% | viability, T/C [7]: 87.4% | viability, T/C [8]: 84.9% | viability, T/C [9]: 94.8% | viability, T/C [10]: 74.9% | viability, T/C [11]: 45.5% | viability, T/C [12]: 30.7% | viability, T/C [13]: 88.7% | viability, T/C [14]: 88.6% | viability, T/C [15]: 90.1% | viability, T/C [16]: 72% | viability, T/C [17]: 49.2% | viability, T/C [18]: 31% | viability, T/C [19]: 117% | viability, T/C [20]: 94.3% | viability, T/C [21]: 102% | viability, T/C [22]: 83.8% | viability, T/C [23]: 65.7% | viability, T/C [24]: 28.7% | viability, T/C [25]: 72.6% | viability, T/C [26]: 76.1% | viability, T/C [27]: 72.5% | viability, T/C [28]: 61% | viability, T/C [29]: 43.6% | viability, T/C [30]: 29.9% | viability, T/C [31]: 78.9% | viability, T/C [32]: 70.9% | viability, T/C [33]: 95.4% | viability, T/C [34]: 56.5% | viability, T/C [35]: 39.5% | viability, T/C [36]: 27.4%

COc1c(OCCCN2CCOCC2)ccc2c3n(c(=NC(=O)c4cnc(N)nc4)nc12)CCN3 + CNC(C)C(=O)NC1CN(S(=O)(=O)c2cccc(S(=O)(=O)N3CCC4CCC(C(=O)NC(c5ccccc5)c5ccccc5)N4C(=O)C(NC(=O)C(C)NC)C3)c2)CCC2CCC(C(=O)NC(c3ccccc3)c3ccccc3)N2C1=O
IC50 (second compound 0.00316 µM): 113 nM | IC50 (second compound 0.01 µM): 67.5 nM | IC50 (second compound 0.0316 µM): 69.3 nM | IC50 (second compound 0.1 µM): 74.5 nM | IC50 (second compound 0.316 µM): 75.2 nM | IC50 (second compound 1 µM): 50.9 nM | viability, T/C [1]: 81.4% | viability, T/C [2]: 62.2% | viability, T/C [3]: 60.6% | viability, T/C [4]: 55.5% | viability, T/C [5]: 41.2% | viability, T/C [6]: 23.8% | viability, T/C [7]: 83.7% | viability, T/C [8]: 67.5% | viability, T/C [9]: 54.4% | viability, T/C [10]: 47% | viability, T/C [11]: 40.9% | viability, T/C [12]: 26.4% | viability, T/C [13]: 80.9% | viability, T/C [14]: 63.9% | viability, T/C [15]: 54.4% | viability, T/C [16]: 49.7% | viability, T/C [17]: 41.9% | viability, T/C [18]: 26.6% | viability, T/C [19]: 87.2% | viability, T/C [20]: 61.9% | viability, T/C [21]: 59.5% | viability, T/C [22]: 50% | viability, T/C [23]: 38.4% | viability, T/C [24]: 27.7% | viability, T/C [25]: 68.9% | viability, T/C [26]: 66.6% | viability, T/C [27]: 52.5% | viability, T/C [28]: 48.5% | viability, T/C [29]: 40.5% | viability, T/C [30]: 24.9% | viability, T/C [31]: 77.1% | viability, T/C [32]: 56.4% | viability, T/C [33]: 53% | viability, T/C [34]: 49.1% | viability, T/C [35]: 37.2% | viability, T/C [36]: 24.3%

C=C(F)C(=O)N1CCN(c2nc(OCC3CCCN3C)nc3c2CCN(c2cccc4cccc(Cl)c24)C3)CC1CC#N (stereo not drawn) + Cc1c(S(C)(=O)=O)c(-c2cc(F)cc(N3CCN(c4ccc(NS(=O)(=O)c5ccc(NC(CCN6CCC(C(=O)OCCCP(=O)(O)O)CC6)CSc6ccccc6)c(S(=O)(=O)C(F)(F)F)c5)cc4)CC3)c2)c(-c2ccc(Cl)cc2)n1C(C)C
IC50 (second compound 0.0316 µM): 3740 nM | IC50 (second compound 0.1 µM): 1000 nM | IC50 (second compound 0.316 µM): 111 nM | IC50 (second compound 1 µM): < 31.6 nM | IC50 (second compound 3.16 µM): < 31.6 nM | IC50 (second compound 10 µM): < 31.6 nM | viability, T/C [15]: 79.3% | viability, T/C [16]: 79.6% | viability, T/C [17]: 73.5% | viability, T/C [18]: 73.3% | viability, T/C [37]: 59.1% | viability, T/C [38]: 0.31% | viability, T/C [21]: 80.3% | viability, T/C [22]: 65.3% | viability, T/C [23]: 58.5% | viability, T/C [24]: 47.1% | viability, T/C [39]: 39.6% | viability, T/C [40]: 0.27% | viability, T/C [27]: 57.9% | viability, T/C [28]: 49.6% | viability, T/C [29]: 37.9% | viability, T/C [30]: 36.9% | viability, T/C [41]: 23.3% | viability, T/C [42]: 0.26% | viability, T/C [33]: 40.1% | viability, T/C [34]: 34.3% | viability, T/C [35]: 28.4% | viability, T/C [36]: 17.8% | viability, T/C [43]: 8.04% | viability, T/C [44]: 0.21% | viability, T/C (second compound 3.16 µM, first compound 0.0316 µM): 18.4% | viability, T/C (second compound 3.16 µM, first compound 0.1 µM): 16.9% | viability, T/C (second compound 3.16 µM, first compound 0.316 µM): 15.8% | viability, T/C (second compound 3.16 µM, first compound 1 µM): 10% | viability, T/C (second compound 3.16 µM, first compound 3.16 µM): 0.82% | viability, T/C (second compound 3.16 µM, first compound 10 µM): 0.2% | viability, T/C (second compound 10 µM, first compound 0.0316 µM): 13.4% | viability, T/C (second compound 10 µM, first compound 0.1 µM): 18.4% | viability, T/C (second compound 10 µM, first compound 0.316 µM): 21.8% | viability, T/C (second compound 10 µM, first compound 1 µM): 9.59% | viability, T/C (second compound 10 µM, first compound 3.16 µM): 0.77% | viability, T/C (second compound 10 µM, first compound 10 µM): 0.15%

C=C(F)C(=O)N1CCN(c2nc(OCC3CCCN3C)nc3c2CCN(c2cccc4cccc(Cl)c24)C3)CC1CC#N (stereo not drawn) + CNC(C)C(=O)NC1CN(S(=O)(=O)c2cccc(S(=O)(=O)N3CCC4CCC(C(=O)NC(c5ccccc5)c5ccccc5)N4C(=O)C(NC(=O)C(C)NC)C3)c2)CCC2CCC(C(=O)NC(c3ccccc3)c3ccccc3)N2C1=O
IC50 (second compound 0.00316 µM): 4740 nM | IC50 (second compound 0.01 µM): 4130 nM | IC50 (second compound 0.0316 µM): 3960 nM | IC50 (second compound 0.1 µM): 4130 nM | IC50 (second compound 0.316 µM): 3840 nM | IC50 (second compound 1 µM): 3460 nM | viability, T/C [3]: 92.6% | viability, T/C [4]: 88.5% | viability, T/C [5]: 81.2% | viability, T/C [6]: 77.6% | viability, T/C (second compound 0.00316 µM, first compound 3.16 µM): 76.8% | viability, T/C (second compound 0.00316 µM, first compound 10 µM): 0.24% | viability, T/C [9]: 87.4% | viability, T/C [10]: 83% | viability, T/C [11]: 80.5% | viability, T/C [12]: 66.9% | viability, T/C (second compound 0.01 µM, first compound 3.16 µM): 69.4% | viability, T/C (second compound 0.01 µM, first compound 10 µM): 0.28% | viability, T/C [15]: 95.6% | viability, T/C [16]: 98.2% | viability, T/C [17]: 73.7% | viability, T/C [18]: 71.2% | viability, T/C [37]: 70.2% | viability, T/C [38]: 0.21% | viability, T/C [21]: 84.9% | viability, T/C [22]: 74.2% | viability, T/C [23]: 76.4% | viability, T/C [24]: 69.7% | viability, T/C [39]: 66.7% | viability, T/C [40]: 0.28% | viability, T/C [27]: 79.6% | viability, T/C [28]: 80.6% | viability, T/C [29]: 77.1% | viability, T/C [30]: 68.8% | viability, T/C [41]: 62.5% | viability, T/C [42]: 0.26% | viability, T/C [33]: 70.8% | viability, T/C [34]: 77.2% | viability, T/C [35]: 80.2% | viability, T/C [36]: 71.5% | viability, T/C [43]: 54.4% | viability, T/C [44]: 0.32%
